The source of these data is patent US20130281397A1, “TREATMENT OF DISEASES BY EPIGENETIC REGULATION” (RVX Therapeutics Inc., priority 2012, published 2013).

Each structure is given as a SMILES string. Counter-ions that a name gives are not always drawn.

The assay has as its target T1, Brd4 bromodomain 1 (Homo sapiens, UniProt O60885).
T1 construct: made in house; host or cells: E. coli BL21(DE3)
Put plainly: Inhibition of binding of tetra-acetylated histone H4 and Brd4 bromodomain 1 by TR-FRET. The following applies: His-tagged bromodomain 200 nM, biotinylated tetra-acetylated histone H4 peptide 25-50 nM, 2 hours at room temperature. Here is the method: Proteins were cloned and overexpressed with a N-terminal 6×His tag, then purified by nickel affinity followed by size exclusion chromatography. Briefly, E. coli BL21(DE3) cells were transformed with a recombinant expression vector encoding N-terminally […] tagged bromodomains from Brd2, Brd3, or Brd4. Cell cultures were incubated at 37° C. with shaking to the appropriate density and induced overnight with IPTG. The supernatant of lysed cells was loaded onto Ni-IDA column for purification. Eluted protein was pooled, concentrated and further purified by size exclusion chromatography. Fractions representing monomeric protein were pooled, concentrated, aliquoted, and frozen at −80° C. for use in subsequent experiments.
For inhibition assays, serially diluted test compound was added to these reactions in a 0.2% final concentration of DMSO. Final buffer concentrations were 30 mM HEPES pH 7.4, 30 mM NaCl, 0.3 mM CHAPS, 20 mM phosphate pH 7.0, 320 mM KF, 0.08% BSA). […] The binding inhibitory activity was shown by a decrease in 665 nm fluorescence relative to 620 nm. IC50 values were determined from a dose response curve.
A general note: Time-resolved FRET reads energy transfer from a long-lived donor to a nearby acceptor.
In the case of `N=C(N)NCCC[C@H](N)C(=O)Oc1ccc(-c2cc3ccccc3c(=O)[nH]2)cc1` (stereo in doubt) [Example 2, 4-(1-Oxo-1,2-dihydroisoquinolin-3-yl)phenyl 2-amino-5-guanidinopentanoate trihydrochloride], the “FRET activity (<50 uM)” value is “Active”.

As to `Cc1cc(-c2cc3ncccc3c(=O)[nH]2)cc(C)c1O` [Example 5, 7-(4-hydroxy-3,5-dimethylphenyl)-1,6-naphthyridin-5(6H)-one], the “FRET activity (<50 uM)” value is “Inactive”.

As for `COc1cc(OC)c2c(=O)[nH]c(-c3cc(C)c(OCCO)c(C)c3)cc2c1` [Example 6, 3-(4-(2-hydroxyethoxy)-3,5-dimethylphenyl)-6,8-dimethoxyisoquinolin-1(2H)-one], the “FRET activity (<50 uM)” value was “Active”.

As to `COc1cc(OC)c2c(=O)[nH]c(-c3cc(C)c(OCCN(C)C)c(C)c3)cc2c1` [Example 7, 3-(4-(2-(dimethylamino)ethoxy)-3,5-dimethylphenyl)-6,8-dimethoxyisoquinolin-1(2H)-one], the “FRET activity (<50 uM)” value is “Active”.

Regarding `COc1cc(O)nc2cc(-c3cc(C)c(O)c(C)c3)[nH]c(=O)c12` [Example 9, 2-hydroxy-7-(4-hydroxy-3,5-dimethylphenyl)-4-methoxy-1,6-naphthyridin-5(6H)-one], the “FRET activity (<50 uM)” value is on record as “Inactive”.

Turning to `COc1cc(OC)c2c(=O)[nH]c(-c3cc(C)c(O)c(C)c3)cc2n1` [Example 13, 7-(4-hydroxy-3,5-dimethylphenyl)-2,4-dimethoxy-1,6-naphthyridin-5(6H)-one], the “FRET activity (<50 uM)” value is recorded as “Active”.

In the case of `COc1cc2cc(-c3cc(C)c(O)c(C)c3)n(C)c(=O)c2c(OC)c1CN1CCOCC1` [Example 14, 3-(4-hydroxy-3,5-dimethylphenyl)-6,8-dimethoxy-2-methyl-7-(morpholinomethyl)isoquinolin-1(2H)-one], the “FRET activity (<50 uM)” value is recorded as “Inactive”.

Take `COc1cc(OC)c2c(=O)[nH]c(-c3cc(C)c(OCCN4CCOCC4)c(C)c3)cc2c1` [Example 15, 3-(3,5-dimethyl-4-(2-morpholinoethoxy)phenyl)-6,8-dimethoxyisoquinolin-1(2H)-one]: the “FRET activity (<50 uM)” value is “Active”.

On to `COc1cc(OC)c2c(=O)[nH]c(-c3cc(C)c(OCCN4CCN(C)CC4)c(C)c3)cc2c1` [Example 18, 3-(3,5-dimethyl-4-(2-(4-methylpiperazin-1-yl)ethoxy)phenyl)-6,8-dimethoxyisoquinolin-1(2H)-one], for which the “FRET activity (<50 uM)” value was “Active”.

As for `COc1cc(OC)c2c(=O)[nH]c(-c3ccc(O)cc3)nc2c1` [Example 19, 2-(4-hydroxyphenyl)-5,7-dimethoxyquinazolin-4(3H)-one], the “FRET activity (<50 uM)” value was “Active”.

As for `COc1cc(OC)c2c(=O)[nH]c(-c3ccc(OCC(=O)O)cc3)nc2c1` [Example 20, 2-(4-(5,7-dimethoxy-4-oxo-3,4-dihydroquinazolin-2-yl)phenoxy)acetic acid], the “FRET activity (<50 uM)” value was “Active”.

As to `COc1cc(OC)c2c(=O)[nH]c(-c3ccccn3)nc2c1` [Example 21, 5,7-dimethoxy-2-(pyridin-2-yl)quinazolin-4(3H)-one], the “FRET activity (<50 uM)” value was “Active”.

Turning to `COc1cc(OC)c2c(=O)[nH]c(-c3cccnc3)nc2c1` [Example 22, 5,7-dimethoxy-2-(pyridin-3-yl)quinazolin-4(3H)-one], the “FRET activity (<50 uM)” value was “Active”.

For the compound `COc1cc(OC)c2c(=O)[nH]c(-c3ccncc3)nc2c1` [Example 28, 5,7-dimethoxy-2-(pyridin-4-yl)quinazolin-4(3H)-one], the “FRET activity (<50 uM)” value is given as “Inactive”.

Take `Cc1cc(-c2nc3ccccc3c(=O)[nH]2)cc(C)c1OCCN1CCOCC1` [Example 29, 2-(3,5-dimethyl-4-(2-morpholinoethoxy)phenyl)quinazolin-4(3H)-one]: the “FRET activity (<50 uM)” value is on record as “Inactive”.

For the compound `COc1cc(OC)c2c(=O)[nH]c(-c3ccc(N4CCOCC4)cc3)nc2c1` [Example 44, 5,7-dimethoxy-2-(4-morpholinophenyl)quinazolin-4(3H)-one], the “FRET activity (<50 uM)” value is “Active”.

For `COc1cc(OC)c2c(=O)[nH]c(-c3ccc(CN4CCN(C)CC4)cc3)nc2c1` [Example 54, 5,7-dimethoxy-2-(4-((4-methylpiperazin-1-yl)methyl)phenyl)quinazolin-4(3H)-one], the “FRET activity (<50 uM)” value is “Active”.

For `COc1cc(OC)c2c(=O)[nH]c(-c3ccc(CN4CCOCC4)cc3)nc2c1` [Example 61, 5,7-dimethoxy-2-(4-(morpholinomethyl)phenyl)quinazolin-4(3H)-one], the “FRET activity (<50 uM)” value was “Active”.

On to `CCN1CCN(Cc2ccc(-c3nc4cc(OC)cc(OC)c4c(=O)[nH]3)cc2)CC1` [Example 62, 2-(4-((4-ethylpiperazin-1-yl)methyl)phenyl)-5,7-dimethoxyquinazolin-4(3H)-one], for which the “FRET activity (<50 uM)” value was “Active”.

`COc1ccc2nc(-c3cc(C)c(OCCO)c(C)c3)[nH]c(=O)c2c1` [Example 76, 2-(4-(2-hydroxyethoxy)-3,5-dimethylphenyl)-6-methoxyquinazolin-4(3H)-one]: the “FRET activity (<50 uM)” value is on record as “Inactive”.

Turning to `COc1cc(OC)c2c(=O)[nH]c(-c3ccccc3Cl)nc2c1` [Example 77, 2-(2-chlorophenyl)-5,7-dimethoxyquinazolin-4(3H)-one], the “FRET activity (<50 uM)” value is “Inactive”.

With `COc1cccc2nc(-c3cc(C)c(OCCO)c(C)c3)[nH]c(=O)c12` [Example 78, 2-(4-(2-hydroxyethoxy)-3,5-dimethylphenyl)-5-methoxyquinazolin-4(3H)-one], the “FRET activity (<50 uM)” value was “Active”.

Take `COc1cc(OC)c2c(=O)[nH]c(-c3cccc(-c4ccc(S(C)(=O)=O)cc4)n3)nc2c1` [Example 80, 5,7-dimethoxy-2-(6-(4-(methylsulfonyl)phenyl)pyridin-2-yl)quinazolin-4(3H)-one]: the “FRET activity (<50 uM)” value is on record as “Active”.

For the compound `COc1cc(OC)c2c(=O)[nH]c(-c3cccc(C)n3)nc2c1` [Example 81, 5,7-dimethoxy-2-(6-methylpyridin-2-yl)quinazolin-4(3H)-one], the “FRET activity (<50 uM)” value is “Active”.

On to `COc1cc(OC)c2c(=O)[nH]c(-c3cccc(-c4ccc(SC)cc4)n3)nc2c1` [Example 82, 5,7-dimethoxy-2-(6-(4-(methylthio)phenyl)pyridin-2-yl)quinazolin-4(3H)-one], for which the “FRET activity (<50 uM)” value is listed as “Inactive”.

Regarding `COc1cc(OC)c2c(=O)[nH]c(-c3cc(C)nc(Cl)c3)nc2c1` [Example 83, 2-(2-chloro-6-methylpyridin-4-yl)-5,7-dimethoxyquinazolin-4(3H)-one], the “FRET activity (<50 uM)” value is “Inactive”.

`COc1cc(OC)c2c(=O)[nH]c(-c3cc(C)c(OC)c(C)c3)nc2c1` [Example 84, 5,7-dimethoxy-2-(4-methoxy-3,5-dimethylphenyl)quinazolin-4(3H)-one]: the “FRET activity (<50 uM)” value is listed as “Active”.

With `COc1cc(OC)c2c(=O)[nH]c(-c3cc(C)c(N)c(C)c3)nc2c1` [Example 85, 2-(4-amino-3,5-dimethylphenyl)-5,7-dimethoxyquinazolin-4(3H)-one], the “FRET activity (<50 uM)” value is “Active”.

With `COc1cc(OC)c2c(=O)[nH]c(-c3cc(C)cc(C)c3)nc2c1` [Example 86, 2-(3,5-dimethylphenyl)-5,7-dimethoxyquinazolin-4(3H)-one], the “FRET activity (<50 uM)” value is reported as “Active”.

`COc1cc(OC)c2c(=O)[nH]c(-c3cc(C)c(/N=C/N(C)C)c(C)c3)nc2c1` [Example 87, (E)-N′-(4-(5,7-dimethoxy-4-oxo-3,4-dihydroquinazolin-2-yl)-2,6-dimethylphenyl)-N,N-dimethylformimidamide]: the “FRET activity (<50 uM)” value was “Active”.

For `Cc1cc(-c2nc3ccc(Br)cc3c(=O)[nH]2)cc(C)c1O` [Example 88, 6-bromo-2-(4-hydroxy-3,5-dimethylphenyl)quinazolin-4(3H)-one], the “FRET activity (<50 uM)” value is reported as “Inactive”.

Take `Cc1cc(-c2nc3ccc(Br)cc3c(=O)[nH]2)cc(C)c1OCCO` [Example 89, 6-bromo-2-(4-(2-hydroxyethoxy)-3,5-dimethylphenyl)quinazolin-4(3H)-one]: the “FRET activity (<50 uM)” value is listed as “Inactive”.

On to `COc1cc(OC)c2c(=O)[nH]c(-c3cc(C)c(OCc4ccccc4)c(C)c3)nc2c1` [Example 90, 2-(4-(benzyloxy)-3,5-dimethylphenyl)-5,7-dimethoxyquinazolin-4(3H)-one], for which the “FRET activity (<50 uM)” value is “Inactive”.

`COc1cc(OC)c2c(=O)[nH]c(-c3ccc(OCCO)c(C)c3)nc2c1` [Example 91, 2-(4-(2-hydroxyethoxy)-3-methylphenyl)-5,7-dimethoxyquinazolin-4(3H)-one]: the “FRET activity (<50 uM)” value was “Active”.

On to `COc1cc(OC)c2c(=O)[nH]c(-c3ccc(O)c(C)c3)nc2c1` [Example 92, 2-(4-hydroxy-3-methylphenyl)-5,7-dimethoxyquinazolin-4(3H)-one], for which the “FRET activity (<50 uM)” value is “Active”.

Turning to `CNC(=O)c1ccccc1C(=O)NCCOc1c(C)cc(-c2nc3cc(OC)cc(OC)c3c(=O)[nH]2)cc1C` [Example 93, N1-(2-(4-(5,7-dimethoxy-4-oxo-3,4-dihydroquinazolin-2-yl)-2,6-dimethylphenoxy)ethyl)-N2-methylphthalamide], the “FRET activity (<50 uM)” value is listed as “Active”.

As to `COc1ccc(S(=O)(=O)NCCOc2c(C)cc(-c3nc4cc(OC)cc(OC)c4c(=O)[nH]3)cc2C)cc1` [Example 94, N-(2-(4-(5,7-dimethoxy-4-oxo-3,4-dihydroquinazolin-2-yl)-2,6-dimethylphenoxy)ethyl)-4-methoxybenzenesulfonamide], the “FRET activity (<50 uM)” value is recorded as “Inactive”.
